Legend:
A375 melanoma tumors = A375 melanoma tumors in nude mice; assay type: in vivo, Swiss nude mice
Procedure: Ten Swiss nude mice (6-7 weeks of age) were injected subcutaneously (sc) with […] A375 melanoma cells on Day 0. When tumor nodules were palpable (Day 8), animals were divided into 2 groups. One group (Control) received 0.1 ml DMSO/PEG (1:1) intraperitoneally (ip) every other day […] for a total of 14 injections. The second group received 40 mg/kg Degrasyn ip beginning on Day 8 and repeated every other day for a total of 14 injections. Body weight and tumor volumes (by calipers) were measured every other day, the latter plotted vs. time. […] All animals were euthanized when tumor volumes (in the control group) achieved the maximal allowable burden (1.5 cm^3). The average +/−S.E.M. tumor volume from 5 animals per group is shown.
Anti-tumor studies. Swiss Nu/Nu mice were obtained from the breeding facility in the Department of Experimental Radiotherapy at M.D. Anderson Cancer Center. On Day 0, 200 μl of an A375 cell suspension (5×10^6 cells/ml) were injected (s.c.) into female Swiss nude mice 6-7 weeks of age. At the interval noted, compounds were injected (i.p. or oral gavage) into tumor bearing mice in a 0.1 ml suspension of DMSO/PEG300 (50/50). Degrasyn (40 mg/kg) was administrated on an every other day schedule, for 5 or more injections. […] Tumor volumes were measured every other day using calipers (Cel Associates, Houston, Tex.).

HA-tagged c-myc = target: T1, HA-tagged c-myc (Homo sapiens, UniProt P01106); test: HA-tagged c-myc stability in transfected HeLa cells; assay type: cell-based; details: 1 h treatment
T1 construct: labeled at the termini as 1 and 439; expressed in transfected cells; host or cells: HeLa
Procedure: Bottom: Expression vectors for HA-tagged c-myc or HA-tagged IKKγ (tagged at the N-terminus) were transfected (at the DNA content indicated) into HeLa cells as described in the methods section above. Twenty-four h later, cells were treated with Degrasyn for 1 h before harvesting cells, extracting protein and subjecting equal protein lysates to immunoblotting for c-myc (left) or IKKγ (right) using an HA-directed antibody. Actin was immunoblotted as a control for protein loading. […] These cells and transfection system were used to map the domains important for Degrasyn mediated destabilization by deletion analysis (FIG. 20).
Analysis of wild-type and mutant (deleted) c-myc protein stability. A c-myc expression vector (pCGN-MYC) was obtained from Dr. William Tansey (Cold Springs Harbor, N.Y.) and initially used to transfect HeLa cancer cells (with the SN2 cationic lipid). In subsequent studies, the c-myc gene was subcloned downstream of the HA antigen in the pcDNA3.1 vector, allowing efficient detection of transfected c-myc by anti-HA immunoblotting. Multiple site-specific mutations and domain deletions were introduced into the c-myc gene using the Stratagene Quickchange II XL kit and specific dual primer sets. The deletions/mutations were verified by direct sequencing before use. […]

K562 cells = test: MTT assay of cell growth and survival, K562 cells; assay type: cell-based, human; details: FIG. 21; anti-tumor activity
Procedure: All compounds are tested for purity (HPLC, NMR) and the calculated molecular weight is used to make up a 10 mM stock solution of each compound (in 100% dimethylsulfoxide or 50% dimethylsulfoxide:50% polyethylene glycol 300). Compounds are diluted into cell culture media consisting of RPMI 1640 with 10% fetal bovine serum to a final starting concentration of 10 μM. [Highest final DMSO content=0.1%.]. Tumor cells (20,000 for non-adherent cells; 5,000 for adherent cells) are plated into individual wells of a 96-well culture plate in 0.1 ml of culture media. Diluted compounds are added to individual wells containing pre-plated cells (final volume 0.2 ml) and incubated at 37° C. for 24 to 72 h. Wells receiving vehicle alone acted as a control.
MTT (viability) assay. MTT reagent (20 μl of 5 mg/ml stock solution, Sigma) is added to the cells and the plates are incubated at 37° C. for another 2 h. Cells are lysed by adding 100 μl of lysis buffer (20% SDS in 50% N,N-dimethylformamide (Sigma) adjusted to pH 4.7 by 80% acetic acid and 1 M HCl such that the final concentration of acetic acid is 2.5% and HCl is 2.5%) into each well and incubated for 6 h. The OD570 of each sample is determined by using a SPECTRA MAX M2 plate reader (Molecular Devices). The OD in control and treated wells is used as an estimate of the effect of compounds on cell growth and survival.
Cell lines. […]

w/t BCR-ABL = target: T2, w/t BCR-ABL (Homo sapiens, UniProt P00519); test: pBCR-ABL and BCR-ABL immunoblot in BV-173 cells; assay type: cell-based; parameters: dose or concentration left out as unconfirmed; details: 1 h
T2 construct: BV-173, a lymphoid CML cell line expressing w/t BCR-ABL; endogenous in cells; host or cells: BV-173; the other entry of the earlier key: BCR (P11274, Breakpoint cluster region protein)
Procedure: Actin was probed as protein loading control.
Western Blot analysis. […] Western blotting was performed using specific primary antibodies Peroxidase-conjugated affiniPure anti-Mouse Anti-Rabbit secondary antibodies (Jackson Immunoresearch Laboratories, West Grove, Pa.). The proteins were visualized with ECL Plus reagents (Amersham Biosciences).

T1 sequence (P01106 16-454): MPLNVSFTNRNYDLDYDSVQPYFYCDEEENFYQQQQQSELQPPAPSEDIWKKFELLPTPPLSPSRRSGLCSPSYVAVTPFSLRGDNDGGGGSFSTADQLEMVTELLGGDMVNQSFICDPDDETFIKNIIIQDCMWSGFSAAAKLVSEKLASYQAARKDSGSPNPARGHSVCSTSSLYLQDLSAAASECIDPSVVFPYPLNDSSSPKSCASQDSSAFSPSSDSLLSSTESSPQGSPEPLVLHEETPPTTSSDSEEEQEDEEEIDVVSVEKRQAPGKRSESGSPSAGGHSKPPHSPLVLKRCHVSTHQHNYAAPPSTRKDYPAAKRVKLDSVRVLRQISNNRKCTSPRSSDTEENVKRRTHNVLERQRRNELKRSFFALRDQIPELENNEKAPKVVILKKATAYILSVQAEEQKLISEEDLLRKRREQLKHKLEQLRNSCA
T2 sequence (P00519 with tags, fused parts or gaps): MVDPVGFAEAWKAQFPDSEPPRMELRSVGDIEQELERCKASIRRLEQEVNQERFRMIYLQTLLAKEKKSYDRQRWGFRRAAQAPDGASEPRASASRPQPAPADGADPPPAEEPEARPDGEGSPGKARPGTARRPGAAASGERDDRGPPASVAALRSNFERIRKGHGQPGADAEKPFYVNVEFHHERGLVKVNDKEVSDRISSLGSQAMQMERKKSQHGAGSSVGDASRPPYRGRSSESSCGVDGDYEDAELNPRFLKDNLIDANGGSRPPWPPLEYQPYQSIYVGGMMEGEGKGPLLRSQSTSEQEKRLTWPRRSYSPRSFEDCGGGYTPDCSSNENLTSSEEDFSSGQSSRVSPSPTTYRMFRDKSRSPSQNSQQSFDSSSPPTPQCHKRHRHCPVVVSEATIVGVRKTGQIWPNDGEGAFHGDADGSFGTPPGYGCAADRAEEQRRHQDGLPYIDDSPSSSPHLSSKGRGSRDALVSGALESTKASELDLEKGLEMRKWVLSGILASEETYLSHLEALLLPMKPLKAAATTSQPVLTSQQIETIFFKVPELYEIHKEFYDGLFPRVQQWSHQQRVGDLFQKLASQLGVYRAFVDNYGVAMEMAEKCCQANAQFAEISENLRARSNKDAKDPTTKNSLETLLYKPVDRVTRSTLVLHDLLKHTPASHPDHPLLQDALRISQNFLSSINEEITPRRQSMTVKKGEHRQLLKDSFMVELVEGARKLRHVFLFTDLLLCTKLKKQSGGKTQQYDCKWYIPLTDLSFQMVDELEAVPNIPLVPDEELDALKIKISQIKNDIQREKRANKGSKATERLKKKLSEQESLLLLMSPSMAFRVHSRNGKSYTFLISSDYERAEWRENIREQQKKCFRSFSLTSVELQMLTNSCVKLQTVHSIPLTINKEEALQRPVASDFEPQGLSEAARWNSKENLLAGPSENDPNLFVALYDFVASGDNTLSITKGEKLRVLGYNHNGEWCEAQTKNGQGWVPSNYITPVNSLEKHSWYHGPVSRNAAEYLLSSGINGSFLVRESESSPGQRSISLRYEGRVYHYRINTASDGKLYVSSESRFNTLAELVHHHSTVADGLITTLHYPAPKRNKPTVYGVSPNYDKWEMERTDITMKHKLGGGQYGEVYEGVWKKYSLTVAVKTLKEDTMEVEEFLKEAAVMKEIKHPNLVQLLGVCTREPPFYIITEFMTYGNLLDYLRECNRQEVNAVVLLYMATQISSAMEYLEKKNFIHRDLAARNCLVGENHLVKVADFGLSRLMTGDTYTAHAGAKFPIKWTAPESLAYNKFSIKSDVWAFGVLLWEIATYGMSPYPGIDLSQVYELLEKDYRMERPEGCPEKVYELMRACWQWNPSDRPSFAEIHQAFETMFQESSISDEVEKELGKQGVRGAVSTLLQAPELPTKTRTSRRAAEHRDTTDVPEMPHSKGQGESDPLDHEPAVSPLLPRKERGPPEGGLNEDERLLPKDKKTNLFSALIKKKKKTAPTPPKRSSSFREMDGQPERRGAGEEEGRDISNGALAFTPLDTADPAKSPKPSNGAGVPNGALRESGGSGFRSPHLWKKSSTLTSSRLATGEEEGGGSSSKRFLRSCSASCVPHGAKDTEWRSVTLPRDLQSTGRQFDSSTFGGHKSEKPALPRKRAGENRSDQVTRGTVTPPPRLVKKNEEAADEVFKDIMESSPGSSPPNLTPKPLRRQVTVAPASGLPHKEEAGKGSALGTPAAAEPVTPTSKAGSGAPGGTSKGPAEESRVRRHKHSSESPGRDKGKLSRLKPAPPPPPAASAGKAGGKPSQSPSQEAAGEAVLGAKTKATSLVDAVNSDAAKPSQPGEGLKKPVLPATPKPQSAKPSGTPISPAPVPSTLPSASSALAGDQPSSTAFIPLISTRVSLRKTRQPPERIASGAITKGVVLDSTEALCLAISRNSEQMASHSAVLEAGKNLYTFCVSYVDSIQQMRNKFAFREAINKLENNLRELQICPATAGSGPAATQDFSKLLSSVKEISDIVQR

## CCC[C@H](NC(=O)/C(C#N)=C/c1cccc(Br)n1)c1ccccc1 [Degrasyn]
A375 melanoma tumors; 40 mg/kg ip every other day
  Animal weight: did not affect animal weight
A375 melanoma tumors; 40 mg/kg ip every other day from Day 8, 14 injections
  Growth of A375 tumors (tumor volume): suppresses the growth of A375 tumors in vivo
HA-tagged c-myc
  HA-tagged c-myc and HA-tagged IKKγ levels: reduced HA-tagged c-myc but did not affect HA-tagged IKKγ
K562 cells
  IC50: 2.8 µM
w/t BCR-ABL
  pBCR-ABL and BCR-ABL protein levels, BV-173: reduced BCR-ABL protein levels in both w/t and mutant BCR-ABL expressing cells

Source: US20100292229A1, “TRYPHOSTIN-ANALOGS FOR THE TREATMENT OF CELL PROLIFERATIVE DISEASES” (The Board of Regents of the University of Texas System, priority 2006, published 2010)
